Reference: patent publication US20110190309A1, “PHARMACEUTICAL PRODUCT COMPRISING A […] RECEPTOR ANTAGONIST AND A Beta2-ADRENOCEPTOR AGONIST” (priority 2008, published 2011)
Structures can show the parent of a compound that is named as a salt.

Experiments:
β2 = target: T1, β2 (Homo sapiens, UniProt P07550); experiment: Adrenergic β2 mediated cAMP production in H292 cells (AlphaScreen); format: cell-based; conditions: Intrinsic Activity as a fraction relative to the maximum activity of formoterol
T1 construct: endogenous in cells; host or cells: H292 cells
T1 sequence (P07550 whole entry): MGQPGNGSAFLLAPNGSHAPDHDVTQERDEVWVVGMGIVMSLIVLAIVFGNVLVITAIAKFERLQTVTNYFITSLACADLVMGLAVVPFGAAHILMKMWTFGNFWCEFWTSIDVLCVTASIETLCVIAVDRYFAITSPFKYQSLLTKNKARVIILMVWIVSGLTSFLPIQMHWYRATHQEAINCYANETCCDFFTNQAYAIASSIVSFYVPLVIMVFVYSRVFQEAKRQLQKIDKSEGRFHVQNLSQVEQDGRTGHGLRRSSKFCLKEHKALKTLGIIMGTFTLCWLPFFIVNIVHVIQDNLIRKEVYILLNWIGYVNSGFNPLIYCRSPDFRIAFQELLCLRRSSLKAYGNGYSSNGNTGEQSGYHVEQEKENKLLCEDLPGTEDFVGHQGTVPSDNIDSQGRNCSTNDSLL
Protocol: H292 cells were grown in 225 cm2 flasks incubator at 37° C., 5% CO2 in RPMI medium containing, 10% (v/v) FBS (foetal bovine serum) and 2 mM L-glutamine.
Adherent H292 cells were removed from tissue culture flasks by treatment with Accutase™ cell detachment solution for 15 minutes. Flasks were incubated for 15 minutes in a humidified incubator at 37° C., 5% CO2. Detached cells were re-suspended in RPMI media (containing 10% (v/v) FBS and 2 mM L-glutamine) at 0.05×10^6 cells per mL. 5000 cells in 100 μL were added to each well of a tissue-culture-treated 96-well plate and the cells incubated overnight in a humidified incubator at 37° C., 5% CO2. The culture media was removed and cells were washed twice with 100 μL assay buffer and replaced with 50 μL assay buffer (HBSS solution containing 10 mM HEPES pH7.4 and 5 mM glucose). Cells were rested at room temperature for 20 minutes after which time 25 μL of rolipram (1.2 mM made up in assay buffer containing 2.4% (v/v) dimethylsulphoxide) was added. Cells were incubated with rolipram for 10 minutes after which time Compound A was added and the cells were incubated for 60 minutes at room temperature. The final rolipram concentration in the assay was 300 μM and final vehicle concentration was 1.6% (v/v) dimethylsulphoxide. The reaction was stopped by removing supernatants, washing once with 100 μL assay buffer and replacing with 50 μL lysis buffer. The cell monolayer was frozen at −80° C. for 30 minutes (or overnight).
The concentration of cAMP (cyclic adenosine monophosphate) in the cell lysate was determined using AlphaScreen™ methodology. […] The AlphaScreen™ signal was measured using an EnVision spectrophotometer (Perkin-Elmer Inc.) with the recommended manufacturer's settings. cAMP concentrations were determined by reference to a calibration curve determined in the same experiment using standard cAMP concentrations. […] Intrinsic Activity was expressed as a fraction relative to the maximum activity determined for formoterol in each experiment.

guinea pig trachea = experiment: Bronchodilator activity in the guinea pig isolated tracheal ring preparation; conditions: 10 nM; methacholine 1 μM; 60 min; mean±s.e.mean
Protocol: Guinea pigs (300-500 g) were killed by cervical dislocation and the trachea was isolated. The trachea was cut into segments 2-3 cartilage rings in width and suspended in 10 ml organ baths in modified Krebs' solution (mM; NaCl, 90; NaHCO3, 45; KCl, 5; MgSO4.7H2O, 0.5; Na2HPO4.2H2O, 1; CaCl2, 2.25; glucose, 10; pH 7.4 gassed with 5% CO2, 95% O2 at 37° C.). The tracheal rings were attached to an isometric force transducer for the measurement of isometric tension. The tissues were washed and a force of 1 g was applied to each tissue. The rings were contracted with methacholine (1 μM). Once the contraction had reached a plateau, vehicle (0.01% DMSO in distilled H2O), indacaterol (10 nM), N-[2-(Diethylamino)ethyl]-N-(2-{[2-(4-hydroxy-2-oxo-2,3-dihydro-1,3-benzothiazol-7-yl)ethyl]amino}ethyl)-3-[2-(1-naphthyl)ethoxy]propanamide dihydrobromide (10 nM), N-Cyclohexyl-N^3-[2-(3-fluorophenyl)ethyl]-N-(2-{[2-(4-hydroxy-2-oxo-2,3-dihydro-1,3-benzothiazol-7-yl)ethyl]amino}ethyl)-(3-alaninamide di-D-mandelate salt (1 nM), (R)-3-(1-Phenyl-cycloheptanecarbonyloxy)-1-(pyridin-2-ylcarbamoylmethyl)-1-azonia-bicyclo[2.2.2]octane bromide (1 nM), a combination of (R)-3-(1-Phenyl-cycloheptanecarbonyloxy)-1-(pyridin-2-ylcarbamoylmethyl)-1-azonia-bicyclo[2.2.2]octane bromide (1 nM) and indacaterol (10 nM), a combination of N-[2-(Diethylamino)ethyl]-N-(2-{[2-(4-hydroxy-2-oxo-2,3-dihydro-1,3-benzothiazol-7-yl)ethyl]amino}ethyl)-3-[2-(1-naphthyl)ethoxy]propanamide dihydrobromide (10 nM) and (R)-3-(1-Phenyl-cycloheptanecarbonyloxy)-1-(pyridin-2-ylcarbamoylmethyl)-1-azonia-bicyclo[2.2.2]octane bromide (1 nM) and, or a combination of N-Cyclohexyl-N^3-[2-(3-fluorophenyl)ethyl]-N-(2-{[2-(4-hydroxy-2-oxo-2,3-dihydro-1,3-benzothiazol-7-yl)ethyl]amino}ethyl)-β-alaninamide di-D-mandelate salt (1 nM) and (R)-3-(1-Phenyl-cycloheptanecarbonyloxy)-1-(pyridin-2-ylcarbamoylmethyl)-1-azonia-bicyclo[2.2.2]octane bromide (1 nM) was added and the tissue left for 60 min. The tension was measured in each ring at 60 min following compound addition and was expressed as a % relaxation of the constriction to methacholine (1 μM) (mean±s.e.mean). Data were collected using the Chart 4 software (ADInstruments, Charlgrove, UK).

SMILES | β2 Int Act (β2) | percentage relaxation of the constriction to methacholine (guinea pig trachea) [%]
O=c1[nH]c2c(O)ccc([C@@H](O)CNCCSCCCNCCc3ccccc3Cl)c2s1 [BA3, 7-[(1R)-2-({2-[(3-{[2-(2-Chlorophenyl)ethyl]amino}propyl)thio]ethyl}amino)-1-hydroxyethyl]-4-hydroxy-1,3-benzothiazol-2(3H)-one dihydrobromide] | 0.8 | 
CCN(CC)CCN(CCNCCc1ccc(O)c2[nH]c(=O)sc12)C(=O)CCOCCc1cccc2ccccc12 [BA1, N-[2-(Diethylamino)ethyl]-N-(2-{[2-(4-hydroxy-2-oxo-2,3-dihydro-1,3-benzothiazol-7-yl)ethyl]amino}ethyl)-3-[2-(1-naphthyl)ethoxy]propanamide dihydrobromide] | 0.8 | 18±11.2
